Assay results: ChEMBL document CHEMBL2429838, “Synthesis and antitumor activity evaluation of 2-arylisoquinoline-1,3(2H,4H)-diones in vitro and in vivo” (Med Chem Res, 2013)
pIC50: −log10 of the molar value.

Legend:
[1] = tested on: A549; assay: Cytotoxicity against human A549 cells after 48 hrs by MTT assay; assay type: functional, cell-based; conditions: A549, 48 h
[2] = tested on: PC-3; assay: Cytotoxicity against human PC3 cells after 48 hrs by MTT assay; assay type: functional, cell-based; conditions: PC-3, 48 h
[3] = tested on: A-431; assay: Cytotoxicity against human A431 cells after 48 hrs by MTT assay; assay type: functional, cell-based; conditions: A-431, 48 h
[4] = tested on: PANC-1; assay: Antitumor activity against human PANC1 cells xenografted in mouse assessed as tumor growth inhibition at 5 mg/kg, po qd for 13 days measured up to 21 days; assay type: functional; conditions: read-out: TGI
[5] = tested on: PANC-1; assay: Antitumor activity against human PANC1 cells xenografted in mouse assessed as tumor growth inhibition at 25 mg/kg, po qd for 13 days measured up to 21 days; assay type: functional; conditions: read-out: TGI
[6] = tested on: PANC-1; assay: Antitumor activity against human PANC1 cells xenografted in po dosed mouse assessed as tumor growth inhibition administered qd for 13 days measured up to 21 days; assay type: functional, organism-based

Structure (SMILES)	pIC50 [1]	pIC50 [2]	pIC50 [3]	inhibition in vivo at 5 mg/kg [4]	inhibition in vivo at 25 mg/kg [5]	TGI [6]
COc1cc2c(c(OC)c1)C(=O)N(c1ccc(C)cc1)C(=O)C2	4.36	4.68	4.32			
O=C(Nc1nc2ccc(N3C(=O)Cc4ccc(F)cc4C3=O)cc2s1)C1CC1	4.90	4.93	5.06			
COc1ccc(N2C(=O)Cc3cc(OC)cc(OC)c3C2=O)cc1	< 4.00	< 4.00	4.10			
O=C(Nc1ccc2nc(NC(=O)C3CC3)sc2c1)c1c(Cl)cccc1Cl	5.05	5.70				
COc1cc2c(c(OC)c1OC)C(=O)N(c1ccc3nc(NC(=O)C4CC4)sc3c1)C(=O)C2	4.79	4.69	5.12			
COc1cc2c(c(OC)c1)C(=O)N(c1cccc(C(F)(F)F)c1)C(=O)C2	< 4.00	4.34	4.20			
O=C(Nc1nc2ccc(N3C(=O)Cc4ccccc4C3=O)cc2s1)C1CC1	4.65	4.78	4.33			
COc1cc2c(c(OC)c1)C(=O)N(c1ccc(C(F)(F)F)cc1)C(=O)C2	4.49	4.77	4.48			
COc1cc2c(c(OC)c1)C(=O)N(c1ccc3nc(NC(C)=O)sc3c1)C(=O)C2	4.69	4.95	4.92			
COc1cc2c(c(OC)c1)C(=O)N(c1ccc3nc(NC(=O)C4CC4)sc3c1)C(=O)C2	4.90	5.11	5.15	23.7%	31.5%	Dose-dependent effect
C#Cc1cccc(N2C(=O)Cc3cc(OC)cc(OC)c3C2=O)c1	< 4.00	4.54	4.22			
COc1ccc2c(c1)CC(=O)N(c1ccc3nc(NC(=O)C4CC4)sc3c1)C2=O	4.68	4.98	4.92			
